Measured values published in ChEMBL document CHEMBL5727468, “Piperidine compounds as PCSK9 inhibitors” (2019).

What follows are molecules tested against Proprotein convertase subtilisin/kexin type 9 (Homo sapiens, UniProt Q8NBP7) (assay: In Vitro Screening Experiment: 1. […] Data Analysis:Date was analyzed with Prismsoftware (nonlinear regression (Sigmoidal dose-response-variable slope)Inhibition ratio %=100*(Sample reading−LC reading)/(HC reading−LC reading).).
Chain of Proprotein convertase subtilisin/kexin type 9 (Q8NBP7 31-152 limits assumed): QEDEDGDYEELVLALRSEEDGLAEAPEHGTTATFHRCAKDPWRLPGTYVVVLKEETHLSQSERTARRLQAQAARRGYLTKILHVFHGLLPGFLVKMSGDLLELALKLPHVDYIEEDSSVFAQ
Chain of Proprotein convertase subtilisin/kexin type 9 (Q8NBP7 153-692 limits assumed): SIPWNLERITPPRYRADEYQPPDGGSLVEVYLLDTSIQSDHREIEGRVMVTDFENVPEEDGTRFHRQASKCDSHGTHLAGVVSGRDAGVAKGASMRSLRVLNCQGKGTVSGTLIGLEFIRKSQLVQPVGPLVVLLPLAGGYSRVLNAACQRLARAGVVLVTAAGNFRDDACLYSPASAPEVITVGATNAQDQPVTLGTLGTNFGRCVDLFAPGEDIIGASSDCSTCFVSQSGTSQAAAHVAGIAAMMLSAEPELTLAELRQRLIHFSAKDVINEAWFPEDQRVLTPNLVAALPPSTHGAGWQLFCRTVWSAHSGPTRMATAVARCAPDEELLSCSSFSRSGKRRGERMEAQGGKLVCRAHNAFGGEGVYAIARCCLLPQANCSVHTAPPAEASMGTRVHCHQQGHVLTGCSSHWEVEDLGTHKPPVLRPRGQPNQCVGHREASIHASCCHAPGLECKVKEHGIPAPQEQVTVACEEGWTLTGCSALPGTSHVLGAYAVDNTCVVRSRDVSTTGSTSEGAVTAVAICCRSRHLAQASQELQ

IC50 [µM]	Compound
< 10	CC1(C)ON=C(c2ccc(C(=O)N(c3ncccc3C3CC3)[C@@H]3CCCNC3)cc2)C1=O
< 10	COCCOC1C(c2ccc(C(=O)N(c3ncccc3C)[C@@H]3CCCNC3)cc2)=NOC1(C)C (some centres not stated)
< 10	COC1C(c2ccc(C(=O)N(c3ncccc3Cl)[C@@H]3CCCNC3)cc2)=NOC1(C)C (some centres not stated)
< 10	Cc1cccnc1N(C(=O)c1ccc(C2=NOC(C)(C)C2(C)O)cc1)[C@@H]1CCCNC1 (some centres not stated)
< 10	Cc1cccnc1N(C(=O)c1ccc(C2=NOC(C)(C)C2=O)cn1)[C@@H]1CCCNC1
< 10	CCc1cccnc1N(C(=O)c1ccc(C2=NOC(C)(C)C2=O)cc1)[C@@H]1CCCNC1
< 10	CC1(C)ON=C(c2ccc(C(=O)N(c3nccc4ccccc34)[C@@H]3CCCNC3)cc2)C1=O
